{"source": "patent US20150105252A1", "about": "“SUBSTITUTED PYRAZOLES AS HERBICIDES” (E I DU PONT DE NEMOURS AND COMPANY, priority 2013, published 2015)", "key": {"barnyardgrass [1]": {"test_system": "barnyardgrass", "test": "Test A preemergence", "type": "in vivo, Echinochloa crus-galli", "settings": "preemergence", "outline": "(§1)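 Growth medium: loam soil blended with sand. Preemergence treatment used a directed soil spray right after planting; postemergence treatment targeted seedlings at one to two leaves (2–10 cm height). Response was judged by eye relative to untreated plants about 10 days later on a 0–100 control scale.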"}, "barnyardgrass [2]": {"test_system": "barnyardgrass", "test": "Test A postemergence", "type": "in vivo, Echinochloa crus-galli", "outline": "as §1"}, "crabgrass, large [3]": {"test_system": "crabgrass, large", "test": "Test A postemergence", "type": "in vivo, Digitaria sanguinalis", "outline": "as §1"}, "morningglory [4]": {"test_system": "morningglory", "test": "Test A postemergence", "type": "in vivo, Ipomoea spp.", "outline": "as §1"}, "pigweed": {"test_system": "pigweed", "test": "Test A postemergence", "type": "in vivo, Amaranthus retroflexus", "outline": "as §1"}, "corn": {"test_system": "corn", "test": "Test A postemergence", "type": "in vivo, Zea mays", "outline": "as §1"}, "crabgrass, large [5]": {"test_system": "crabgrass, large", "test": "Test C preemergence", "type": "in vivo, Digitaria sanguinalis", "settings": "for Crabgrass, Large plant response rating: preemergence", "outline": "(§2)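 Visual rating, 0–100 scale (0 no effect, 100 complete control), vs untreated controls after 13–15 d greenhouse. Pre: seeds in loam/sand, treated at sowing. Post: plants in peat-based mix, 1- to 4-leaf (2–18 cm). Solvent + surfactant formulation, non-phytotoxic.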"}, "morningglory [6]": {"test_system": "morningglory", "test": "Test C preemergence", "type": "in vivo, Ipomoea coccinea", "settings": "for Morningglory plant response rating: preemergence", "outline": "as §2"}, "nutsedge, yellow": {"test_system": "nutsedge, yellow", "test": "Test C preemergence", "type": "in vivo, Cyperus esculentus", "settings": "for Nutsedge, Yellow plant response rating: preemergence", "outline": "as §2"}, "barnyardgrass [7]": {"test_system": "barnyardgrass", "test": "Test C preemergence", "type": "in vivo, Echinochloa crus-galli", "settings": "for Barnyardgrass plant response rating: preemergence", "outline": "as §2"}, "velvetleaf": {"test_system": "velvetleaf", "test": "Test C preemergence", "type": "in vivo, Abutilon theophrasti", "settings": "for Velvetleaf plant response rating: preemergence", "outline": "as §2"}, "ryegrass, Italian": {"test_system": "ryegrass, Italian", "test": "Test C postemergence", "type": "in vivo, Lolium multiflorum", "outline": "as §2"}, "soybean": {"test_system": "soybean", "test": "Test C postemergence", "type": "in vivo, Glycine max", "outline": "as §2"}, "oilseed rape": {"test_system": "oilseed rape", "test": "Test C postemergence", "type": "in vivo, Brassica napus", "outline": "as §2"}, "oat, wild": {"test_system": "oat, wild", "test": "Test C postemergence", "type": "in vivo, Avena fatua", "outline": "as §2"}, "kochia": {"test_system": "kochia", "test": "Test C postemergence", "type": "in vivo, Kochia scoparia", "outline": "as §2"}, "[8]": {"settings": "Postemergence, 500 g ai/ha, visual rating after approx. 10 days, 0 to 100 scale (0 no effect, 100 complete control)"}, "[9]": {"settings": "postemergence, 125 g ai/ha, about 10 days, visual rating on 0 to 100 scale (0 no effect, 100 complete control)"}, "[10]": {"settings": "31 g ai/ha, visual rating, scale 0 to 100 (0 no effect, 100 complete control), 13 to 15 days"}, "[11]": {"settings": "62 g ai/ha, scale 0 to 100 (0 no effect, 100 complete control), 13 to 15 days"}, "[12]": {"settings": "125 g ai/ha, scale 0 to 100, 0 is no effect, 100 is complete control"}, "[13]": {"settings": "Postemergence, 31 g ai/ha, visually evaluated after 13 to 15 days"}, "[14]": {"settings": "postemergence, 62 g ai/ha, scale 0 to 100"}, "[15]": {"settings": "postemergence, 250 g ai/ha, scale 0 to 100 (0 no effect, 100 complete control)"}, "[16]": {"settings": "postemergence, 125 g ai/ha, scale 0 to 100, 0 no effect, 100 complete control"}}, "data": [{"smiles": "CCc1cc(C(=O)NCC(F)(F)F)nn1Cc1nc(C(F)(F)F)nn1C", "note": "[Compound 107]", "values": [{"measurement": "Barnyardgrass plant response rating", "setting": "barnyardgrass [1]; 125 g ai/ha, visual injury, 0 to 100 scale, approx. 10 days", "value": 100}, {"measurement": "Barnyardgrass plant response rating", "setting": "barnyardgrass [1]; 500 g ai/ha, visual injury after approx. 10 days, 0 to 100 scale (0 no effect, 100 complete control)", "value": 100}, {"measurement": "Barnyardgrass plant response rating", "setting": "barnyardgrass [2]; [8]", "value": 90}, {"measurement": "Barnyardgrass plant response rating", "setting": "barnyardgrass [2]; [9]", "value": 80}, {"measurement": "Crabgrass, Large plant response rating", "setting": "crabgrass, large [3]; [8]", "value": 90}, {"measurement": "Crabgrass, Large plant response rating", "setting": "crabgrass, large [3]; [9]", "value": 80}, {"measurement": "Morningglory plant response rating", "setting": "morningglory [4]; [8]", "value": 100}, {"measurement": "Morningglory plant response rating", "setting": "morningglory [4]; [9]", "value": 90}, {"measurement": "Pigweed plant response rating", "setting": "pigweed; [8]", "value": 100}, {"measurement": "Pigweed plant response rating", "setting": "pigweed; [9]", "value": 100}, {"measurement": "Corn plant response rating", "setting": "corn; [8]", "value": 90}, {"measurement": "Corn plant response rating", "setting": "corn; [9]", "value": 50}, {"measurement": "Plant response rating (scale of 0 to 100), Crabgrass, Large", "setting": "crabgrass, large [5]; Preemergence, 250 g ai/ha", "value": 98}, {"measurement": "Crabgrass, Large plant response rating", "setting": "crabgrass, large [5]; [10]", "value": 98}, {"measurement": "Crabgrass, Large plant response rating", "setting": "crabgrass, large [5]; [11]", "value": 98}, {"measurement": "Crabgrass, Large plant response rating", "setting": "crabgrass, large [5]; [12]", "value": 98}, {"measurement": "Plant response rating (scale of 0 to 100), Morningglory", "setting": "morningglory [6]; Preemergence, 250 g ai/ha", "value": 100}, {"measurement": "Morningglory plant response rating", "setting": "morningglory [6]; [10]", "value": 90}, {"measurement": "Morningglory plant response rating", "setting": "morningglory [6]; [11]", "value": 100}, {"measurement": "Morningglory plant response rating", "setting": "morningglory [6]; [12]", "value": 100}, {"measurement": "Plant response rating (scale of 0 to 100), Nutsedge, Yellow", "setting": "nutsedge, yellow; Preemergence, 250 g ai/ha", "value": 100}, {"measurement": "Nutsedge, Yellow plant response rating", "setting": "nutsedge, yellow; [10]", "value": 15}, {"measurement": "Nutsedge, Yellow plant response rating", "setting": "nutsedge, yellow; [11]", "value": 60}, {"measurement": "Nutsedge, Yellow plant response rating", "setting": "nutsedge, yellow; [12]", "value": 85}, {"measurement": "Plant response rating (scale of 0 to 100), Barnyardgrass", "setting": "barnyardgrass [7]; Preemergence, 250 g ai/ha", "value": 100}, {"measurement": "Barnyardgrass plant response rating", "setting": "barnyardgrass [7]; 31 g ai/ha, scale 0 to 100 (0 no effect, 100 complete control), 13 to 15 days", "value": 40}, {"measurement": "Barnyardgrass plant response rating", "setting": "barnyardgrass [7]; [11]", "value": 100}, {"measurement": "Barnyardgrass plant response rating", "setting": "barnyardgrass [7]; [12]", "value": 100}, {"measurement": "Plant response rating (scale of 0 to 100), Velvetleaf", "setting": "velvetleaf; Preemergence, 250 g ai/ha", "value": 100}, {"measurement": "Velvetleaf plant response rating", "setting": "velvetleaf; [10]", "value": 60}, {"measurement": "Velvetleaf plant response rating", "setting": "velvetleaf; [11]", "value": 85}, {"measurement": "Velvetleaf plant response rating", "setting": "velvetleaf; [12]", "value": 100}, {"measurement": "Plant response rating (scale of 0 to 100 where 0 is no effect and 100 is complete control), Ryegrass, Italian", "setting": "ryegrass, Italian; [13]", "value": 0}, {"measurement": "Ryegrass, Italian plant response rating", "setting": "ryegrass, Italian; [14]", "value": 5}, {"measurement": "Plant response rating, Ryegrass, Italian", "setting": "ryegrass, Italian; [15]", "value": 5}, {"measurement": "Plant response rating, Ryegrass, Italian", "setting": "ryegrass, Italian; [16]", "value": 5}, {"measurement": "Plant response rating (scale of 0 to 100 where 0 is no effect and 100 is complete control), Soybean", "setting": "soybean; [13]", "value": 20}, {"measurement": "Soybean plant response rating", "setting": "soybean; [14]", "value": 50}, {"measurement": "Plant response rating, Soybean", "setting": "soybean; [15]", "value": 90}, {"measurement": "Plant response rating, Soybean", "setting": "soybean; [16]", "value": 50}, {"measurement": "Plant response rating (scale of 0 to 100 where 0 is no effect and 100 is complete control), Oilseed Rape", "setting": "oilseed rape; [13]", "value": 5}, {"measurement": "Oilseed Rape plant response rating", "setting": "oilseed rape; [14]", "value": 60}, {"measurement": "Plant response rating, Oilseed Rape", "setting": "oilseed rape; [15]", "value": 80}, {"measurement": "Plant response rating, Oilseed Rape", "setting": "oilseed rape; [16]", "value": 60}, {"measurement": "Plant response rating (scale of 0 to 100 where 0 is no effect and 100 is complete control), Oat, Wild", "setting": "oat, wild; [13]", "value": 5}, {"measurement": "Oat, Wild plant response rating", "setting": "oat, wild; [14]", "value": 5}, {"measurement": "Plant response rating, Oat, Wild", "setting": "oat, wild; [15]", "value": 40}, {"measurement": "Plant response rating, Oat, Wild", "setting": "oat, wild; [16]", "value": 5}, {"measurement": "Plant response rating (scale of 0 to 100 where 0 is no effect and 100 is complete control), Kochia", "setting": "kochia; [13]", "value": 50}, {"measurement": "Kochia plant response rating", "setting": "kochia; [14]", "value": 85}, {"measurement": "Plant response rating, Kochia", "setting": "kochia; [15]", "value": 90}, {"measurement": "Plant response rating, Kochia", "setting": "kochia; [16]", "value": 85}]}]}
